US10054581B1, “Inhibitors of notch signaling pathway and use thereof in treatment of cancers” (Ecole Polytechnique Federale de Lausanne (EPFL), priority 2011, dated 2018)
Entries after “also recorded” stand apart in the source; their conditions may differ.

Columns and labels:
[1] = tested on: primary human TALL samples; test: Primary human TALL samples treated with I3; assay type: cell-based
Excerpt: To further investigate the Notch inhibitory effect of 6-(4-Tert-Butylphenoxy)Pyridin-3-Amine (I3) in a relevant pathological condition, primary human TALL samples were profiled for the activation of Notch signalling. An accumulation of active form of Notch (NICD) was used as a biomarker for pathway activation.

[2] = tested on: Notch target genes Hes1, cMyc and Dtx1; NICD; test: Notch target gene expression in human cancer cell lines (qRT-PCR, Western blot); assay type: cell-based
Method: Total RNA was extracted from cells using TRIzol® extraction kit (Invitrogen). Briefly, 1×10^6 cells were washed with ice-cold 1×PBS and lysed in 1 ml of TRIzol® solution for 5 minutes at room temperature to dissociate nucleoprotein complexes. Lysed cells were then treated with 200 μl of chloroform and shaked vigorously for 15-30 seconds and incubated at room temperature for 2-3 minutes. The samples were centrifuged at 14000 rpm using Eppendorf table top centrifuge for 10 minutes at 4° C. Following centrifugation, upper aqueous phase was transferred to new eppendorf tubes. […]
Total RNA extracted from the cell was used to synthesize cDNA by reverse transcription reaction. […] RNA concentration was measured using NanoDrop®ND-1000 spectrophotometer (Witec AG) and 500 ng of total RNA was mixed with a 10 mM mix of dNTPs and 100 ng of random primers. […]
Cells were lysed in RIPA buffer (50 mM Tris.Cl, pH 7.5, 150 mM NaCl, 1% nonidet P-40, 0.5% sodium deoxycholate and 0.1% SDS) for 30 minutes at 4° C. […] The protein concentration was determined by Bradford assay using spectrophotometer (Ultrospec 3000 pro). […]
For immunoblotting, membranes were blocked with 5% milk and incubated overnight with primary antibodies at 4° C. […] Signal was detected with Super Signal West chemiluminescent substrate (Thermo Scientific, catalog number 34077). […]

[3] = tested on: Notch2-intracellular domain (N2-ICD); test: N2-ICD mediated pathway activation, luciferase reporter; assay type: cell-based
[4] = tested on: MMTV-ErbB2 mouse mammary tumors; test: MMTV-ErbB2 mammary tumor transplantation in FVB mice; assay type: in vivo; settings: 25 mg/kg on alternate days, established tumors; preliminary results
Method: FIGS. 9A-9B show 6-(4-Tert-Butylphenoxy)Pyridin-3-Amine (I3) treatment blocks MMTV-ErbB2 mouse mammary tumors. […] Tubulin served as a loading control. […] Tumor formation was monitored on a regular basis. Once the tumor developed to a volume of 100-300 mm^3′ mice were treated with oil (n=2) or 25 mg/kg of 6-(4-Tert-Butylphenoxy)Pyridin-3-Amine (I3) (n=2). Tumor volume was measured every 6-7 days.
Primary MMTV-ErbB2/Neu mammary tumors were harvested from the mice and a single cell suspension was prepared. 1×10^6 primary tumor cells were suspended in 50 μl of 1×PBS and kept on ice. Three weeks old recipient FVB mice were cleared of their endogenous epithelium and tumor cells were injected into the empty fat pad. Tumor development in the recipient mice was monitored and tumor volumes were measured using digital caliper. Tumor volumes were calculated using following formula: […]length×(width)^2. Once the tumor reached a volume of about 100 mm^3, recipient mice were treated with oil or 25 mg/kg of I3 on alternate days.
In human breast cancer, high levels of Notch1 and Jagged1 proteins correlated with a poor survival of breast cancer patients. In addition, activation of Notch signalling in human breast cancer also facilitates bone and lung metastasis. […] The tumor volume was measured and recorded on regular intervals.

[5] = primary human TALL with accumulation of NICD

## CC(C)(C)c1ccc(Oc2ccc(N)cn2)cc1 [I3, 6-(4-Tert-Butylphenoxy)Pyridin-3-Amine]
[1]; primary human TALL samples without detectable levels of NICD
  response to treatment: did not respond
[1]; [5]
  NICD protein: leads to a downregulation of this protein
  proliferation: correlates with a proliferative arrest
[2]; RPMI 8402, HPB ALL, KOPTK1, 24 hours, Western blot
  NICD protein levels: reduced levels of NICD
[2]; RPMI 8402, HPBALL, KOPTK1 and PANC1, 24 hours
  expression of Notch target genes Hes1, cMyc and Dtx1 (mRNA and protein): induced a statistically significant downregulation of Notch target genes; also recorded: inhibits Notch signalling and downregulates its target genes in human cancer cell lines; also recorded: downregulation of Notch target genes in human T-ALL cell lines
[3]
  pathway activation by N2-ICD: could also block pathway activation by Notch1-intracellular domain (NICD) and Notch2-intracellular domain (N2-ICD); also recorded: inhibits pathway activation via intracellular domains of Notch1 (NICD) and Notch2 (N2-ICD)
[4]
  tumor volume / tumor progression: caused significant tumor growth retardation; also recorded: exhibited a slow tumor progression compared to oil treated mice; also recorded: led to a block in tumor progression in the mice
